Results published in ChEMBL document CHEMBL3991601, “The target landscape of clinical kinase drugs” (Science, 2017).
The source made the active and inactive calls. Cut-off read from the data, not from the text of the source, for most assays here: actives have a measured Kd and inactives only a lower limit.

Legend:
[1] = molecular target: Tyrosine-protein kinase CSK (Homo sapiens, UniProt P41240)
[2] = molecular target: Serine/threonine-protein kinase/endoribonuclease IRE1 (Homo sapiens, UniProt O75460)
[3] = molecular target: Serine/threonine-protein kinase/endoribonuclease IRE2 (Homo sapiens, UniProt Q76MJ5)
Chain of Serine/threonine-protein kinase/endoribonuclease IRE2 (Q76MJ5 whole entry): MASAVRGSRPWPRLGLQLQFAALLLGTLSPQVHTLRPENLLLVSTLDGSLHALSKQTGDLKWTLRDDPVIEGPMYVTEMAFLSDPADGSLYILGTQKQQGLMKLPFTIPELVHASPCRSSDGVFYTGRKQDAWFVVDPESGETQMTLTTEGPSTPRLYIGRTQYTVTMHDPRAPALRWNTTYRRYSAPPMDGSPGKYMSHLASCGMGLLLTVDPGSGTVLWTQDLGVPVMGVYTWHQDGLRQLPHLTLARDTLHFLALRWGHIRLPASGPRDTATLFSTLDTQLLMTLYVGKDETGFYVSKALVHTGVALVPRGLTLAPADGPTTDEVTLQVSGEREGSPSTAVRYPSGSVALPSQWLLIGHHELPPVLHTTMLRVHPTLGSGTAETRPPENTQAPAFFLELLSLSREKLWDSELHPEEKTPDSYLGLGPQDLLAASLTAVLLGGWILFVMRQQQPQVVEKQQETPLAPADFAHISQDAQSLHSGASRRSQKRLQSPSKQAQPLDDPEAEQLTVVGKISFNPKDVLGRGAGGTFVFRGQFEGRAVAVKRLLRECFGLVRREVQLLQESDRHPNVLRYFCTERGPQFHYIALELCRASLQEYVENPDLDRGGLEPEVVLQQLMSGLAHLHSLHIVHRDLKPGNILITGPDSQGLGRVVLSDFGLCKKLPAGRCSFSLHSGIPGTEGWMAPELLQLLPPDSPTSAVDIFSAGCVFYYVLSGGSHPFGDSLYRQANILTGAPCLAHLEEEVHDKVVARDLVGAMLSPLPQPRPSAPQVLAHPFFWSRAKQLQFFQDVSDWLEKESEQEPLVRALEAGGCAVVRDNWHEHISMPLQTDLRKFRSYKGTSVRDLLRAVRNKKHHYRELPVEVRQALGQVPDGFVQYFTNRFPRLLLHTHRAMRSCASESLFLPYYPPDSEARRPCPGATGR

[4] = molecular target: Insulin receptor (Homo sapiens, UniProt P06213)
Chain of Insulin receptor (P06213 28-758 limits assumed): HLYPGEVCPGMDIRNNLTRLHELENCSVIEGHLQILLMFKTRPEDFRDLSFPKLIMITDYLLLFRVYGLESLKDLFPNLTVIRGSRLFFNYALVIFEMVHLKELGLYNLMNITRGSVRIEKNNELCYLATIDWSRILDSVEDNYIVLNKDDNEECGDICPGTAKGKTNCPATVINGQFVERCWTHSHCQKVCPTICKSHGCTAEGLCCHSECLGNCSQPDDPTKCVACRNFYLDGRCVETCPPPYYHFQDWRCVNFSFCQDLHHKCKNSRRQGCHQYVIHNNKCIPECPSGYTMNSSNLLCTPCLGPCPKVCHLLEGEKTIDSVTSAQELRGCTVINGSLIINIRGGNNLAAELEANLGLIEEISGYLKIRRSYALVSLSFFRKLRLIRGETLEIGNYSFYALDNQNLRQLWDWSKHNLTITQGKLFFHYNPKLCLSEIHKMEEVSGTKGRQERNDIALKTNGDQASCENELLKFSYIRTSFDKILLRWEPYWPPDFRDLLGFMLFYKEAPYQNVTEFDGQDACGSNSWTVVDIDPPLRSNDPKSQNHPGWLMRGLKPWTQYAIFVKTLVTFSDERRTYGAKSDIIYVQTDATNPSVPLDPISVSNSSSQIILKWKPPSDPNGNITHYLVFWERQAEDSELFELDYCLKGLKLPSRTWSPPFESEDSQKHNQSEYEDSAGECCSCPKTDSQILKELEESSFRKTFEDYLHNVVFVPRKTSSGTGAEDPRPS
Chain of Insulin receptor (P06213 763-1382 limits assumed): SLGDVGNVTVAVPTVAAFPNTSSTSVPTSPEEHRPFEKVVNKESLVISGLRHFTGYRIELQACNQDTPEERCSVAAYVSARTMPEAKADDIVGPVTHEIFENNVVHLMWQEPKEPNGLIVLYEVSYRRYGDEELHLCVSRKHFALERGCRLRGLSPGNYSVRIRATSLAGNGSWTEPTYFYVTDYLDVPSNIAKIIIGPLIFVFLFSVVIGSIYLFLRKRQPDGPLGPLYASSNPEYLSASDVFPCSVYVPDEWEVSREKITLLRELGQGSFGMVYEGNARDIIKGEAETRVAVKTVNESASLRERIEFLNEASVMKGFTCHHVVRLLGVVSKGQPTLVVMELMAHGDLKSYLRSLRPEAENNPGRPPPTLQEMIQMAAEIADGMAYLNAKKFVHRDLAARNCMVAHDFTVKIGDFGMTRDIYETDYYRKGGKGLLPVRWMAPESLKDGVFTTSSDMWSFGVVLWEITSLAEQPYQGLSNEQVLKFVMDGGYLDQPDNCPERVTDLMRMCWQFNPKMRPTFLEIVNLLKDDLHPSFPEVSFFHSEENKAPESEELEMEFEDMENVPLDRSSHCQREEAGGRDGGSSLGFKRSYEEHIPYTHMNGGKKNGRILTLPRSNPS

[5] = molecular target: T1, Dual specificity mitogen-activated protein kinase kinase 5 (Homo sapiens, UniProt Q13163)
T1 sequence (Q13163 whole entry): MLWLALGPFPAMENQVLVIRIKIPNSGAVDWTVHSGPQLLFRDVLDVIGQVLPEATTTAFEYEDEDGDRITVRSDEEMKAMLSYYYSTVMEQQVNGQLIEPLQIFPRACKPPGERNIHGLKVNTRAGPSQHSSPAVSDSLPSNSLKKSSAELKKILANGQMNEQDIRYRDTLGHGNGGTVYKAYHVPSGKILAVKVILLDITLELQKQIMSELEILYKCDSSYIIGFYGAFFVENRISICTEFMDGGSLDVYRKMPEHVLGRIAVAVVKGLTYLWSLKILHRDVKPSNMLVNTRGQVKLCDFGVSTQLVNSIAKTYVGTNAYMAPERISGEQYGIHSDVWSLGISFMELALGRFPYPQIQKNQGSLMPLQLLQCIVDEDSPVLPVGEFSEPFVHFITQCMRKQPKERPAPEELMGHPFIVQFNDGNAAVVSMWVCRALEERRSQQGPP

[6] = molecular target: T2, Mitogen-activated protein kinase 15 (Homo sapiens, UniProt Q8TD08)
T2 sequence (Q8TD08 whole entry): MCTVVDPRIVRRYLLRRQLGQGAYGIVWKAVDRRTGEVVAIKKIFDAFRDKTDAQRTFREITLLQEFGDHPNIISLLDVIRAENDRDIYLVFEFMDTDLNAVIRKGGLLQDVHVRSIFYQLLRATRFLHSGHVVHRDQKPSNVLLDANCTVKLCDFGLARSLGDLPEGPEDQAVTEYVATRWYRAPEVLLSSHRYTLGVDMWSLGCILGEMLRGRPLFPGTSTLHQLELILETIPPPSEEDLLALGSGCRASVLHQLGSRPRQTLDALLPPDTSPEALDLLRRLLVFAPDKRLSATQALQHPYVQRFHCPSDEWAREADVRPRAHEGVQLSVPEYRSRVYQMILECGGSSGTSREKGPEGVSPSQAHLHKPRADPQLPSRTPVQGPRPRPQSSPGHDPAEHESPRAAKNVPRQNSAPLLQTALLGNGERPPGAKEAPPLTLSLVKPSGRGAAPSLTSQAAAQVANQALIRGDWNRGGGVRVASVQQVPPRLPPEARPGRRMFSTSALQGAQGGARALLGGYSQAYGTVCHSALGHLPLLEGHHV

[7] = molecular target: Focal adhesion kinase 1 (Homo sapiens, UniProt Q05397)
[8] = molecular target: T3, Glycogen phosphorylase, brain form (Homo sapiens, UniProt P11216)
T3 sequence (P11216 whole entry): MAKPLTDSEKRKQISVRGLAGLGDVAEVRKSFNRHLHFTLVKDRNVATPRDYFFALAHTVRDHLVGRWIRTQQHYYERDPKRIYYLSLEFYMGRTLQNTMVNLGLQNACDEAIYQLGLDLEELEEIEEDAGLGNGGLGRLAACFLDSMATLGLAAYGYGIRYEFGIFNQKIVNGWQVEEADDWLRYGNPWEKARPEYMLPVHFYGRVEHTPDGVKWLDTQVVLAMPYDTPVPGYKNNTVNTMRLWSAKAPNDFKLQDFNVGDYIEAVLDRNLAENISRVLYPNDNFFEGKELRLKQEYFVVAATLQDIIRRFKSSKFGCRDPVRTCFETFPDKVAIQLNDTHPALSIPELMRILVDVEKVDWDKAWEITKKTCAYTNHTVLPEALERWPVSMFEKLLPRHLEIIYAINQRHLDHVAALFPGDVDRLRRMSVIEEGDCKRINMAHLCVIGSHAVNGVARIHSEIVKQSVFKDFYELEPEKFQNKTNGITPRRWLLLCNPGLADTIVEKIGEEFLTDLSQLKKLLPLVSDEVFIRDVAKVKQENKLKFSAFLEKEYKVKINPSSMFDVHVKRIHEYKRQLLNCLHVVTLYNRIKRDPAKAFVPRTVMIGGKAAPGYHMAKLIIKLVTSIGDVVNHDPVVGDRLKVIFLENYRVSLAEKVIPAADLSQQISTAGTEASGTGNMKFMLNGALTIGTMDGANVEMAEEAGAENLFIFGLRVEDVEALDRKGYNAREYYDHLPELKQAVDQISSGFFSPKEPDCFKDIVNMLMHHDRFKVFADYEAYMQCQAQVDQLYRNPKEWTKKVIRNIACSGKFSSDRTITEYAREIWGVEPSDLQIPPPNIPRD

[9] = molecular target: Serine/threonine-protein kinase SIK2 (Homo sapiens, UniProt Q9H0K1)
Chain of Serine/threonine-protein kinase SIK2 (Q9H0K1 whole entry): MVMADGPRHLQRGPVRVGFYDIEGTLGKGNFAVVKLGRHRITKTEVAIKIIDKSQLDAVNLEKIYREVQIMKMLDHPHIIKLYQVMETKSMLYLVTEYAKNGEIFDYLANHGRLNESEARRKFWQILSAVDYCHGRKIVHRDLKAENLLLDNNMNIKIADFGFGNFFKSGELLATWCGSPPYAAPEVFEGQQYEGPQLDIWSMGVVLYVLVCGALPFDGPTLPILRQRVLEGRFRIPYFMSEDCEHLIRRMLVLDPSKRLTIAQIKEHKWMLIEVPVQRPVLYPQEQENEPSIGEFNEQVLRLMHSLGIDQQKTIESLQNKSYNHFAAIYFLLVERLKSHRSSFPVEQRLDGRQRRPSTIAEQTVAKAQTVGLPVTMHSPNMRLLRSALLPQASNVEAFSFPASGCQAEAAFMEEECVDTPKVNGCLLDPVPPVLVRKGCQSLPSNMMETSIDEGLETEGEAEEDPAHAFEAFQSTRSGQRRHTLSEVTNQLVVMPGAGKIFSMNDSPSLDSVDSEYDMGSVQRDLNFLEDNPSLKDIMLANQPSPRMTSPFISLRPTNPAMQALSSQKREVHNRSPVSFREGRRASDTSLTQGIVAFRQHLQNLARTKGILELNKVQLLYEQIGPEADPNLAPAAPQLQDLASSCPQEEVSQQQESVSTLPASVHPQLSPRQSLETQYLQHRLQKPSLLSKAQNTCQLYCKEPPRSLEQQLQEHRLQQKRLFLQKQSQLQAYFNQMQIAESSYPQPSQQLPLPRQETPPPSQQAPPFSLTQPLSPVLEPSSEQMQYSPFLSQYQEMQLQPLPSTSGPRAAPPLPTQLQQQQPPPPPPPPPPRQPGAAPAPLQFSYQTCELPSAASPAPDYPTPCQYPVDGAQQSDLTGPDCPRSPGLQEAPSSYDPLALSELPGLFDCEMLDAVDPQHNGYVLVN

[10] = molecular target: Serine/threonine-protein kinase SIK3 (Homo sapiens, UniProt Q9Y2K2)
Chain of Serine/threonine-protein kinase SIK3 (Q9Y2K2 whole entry): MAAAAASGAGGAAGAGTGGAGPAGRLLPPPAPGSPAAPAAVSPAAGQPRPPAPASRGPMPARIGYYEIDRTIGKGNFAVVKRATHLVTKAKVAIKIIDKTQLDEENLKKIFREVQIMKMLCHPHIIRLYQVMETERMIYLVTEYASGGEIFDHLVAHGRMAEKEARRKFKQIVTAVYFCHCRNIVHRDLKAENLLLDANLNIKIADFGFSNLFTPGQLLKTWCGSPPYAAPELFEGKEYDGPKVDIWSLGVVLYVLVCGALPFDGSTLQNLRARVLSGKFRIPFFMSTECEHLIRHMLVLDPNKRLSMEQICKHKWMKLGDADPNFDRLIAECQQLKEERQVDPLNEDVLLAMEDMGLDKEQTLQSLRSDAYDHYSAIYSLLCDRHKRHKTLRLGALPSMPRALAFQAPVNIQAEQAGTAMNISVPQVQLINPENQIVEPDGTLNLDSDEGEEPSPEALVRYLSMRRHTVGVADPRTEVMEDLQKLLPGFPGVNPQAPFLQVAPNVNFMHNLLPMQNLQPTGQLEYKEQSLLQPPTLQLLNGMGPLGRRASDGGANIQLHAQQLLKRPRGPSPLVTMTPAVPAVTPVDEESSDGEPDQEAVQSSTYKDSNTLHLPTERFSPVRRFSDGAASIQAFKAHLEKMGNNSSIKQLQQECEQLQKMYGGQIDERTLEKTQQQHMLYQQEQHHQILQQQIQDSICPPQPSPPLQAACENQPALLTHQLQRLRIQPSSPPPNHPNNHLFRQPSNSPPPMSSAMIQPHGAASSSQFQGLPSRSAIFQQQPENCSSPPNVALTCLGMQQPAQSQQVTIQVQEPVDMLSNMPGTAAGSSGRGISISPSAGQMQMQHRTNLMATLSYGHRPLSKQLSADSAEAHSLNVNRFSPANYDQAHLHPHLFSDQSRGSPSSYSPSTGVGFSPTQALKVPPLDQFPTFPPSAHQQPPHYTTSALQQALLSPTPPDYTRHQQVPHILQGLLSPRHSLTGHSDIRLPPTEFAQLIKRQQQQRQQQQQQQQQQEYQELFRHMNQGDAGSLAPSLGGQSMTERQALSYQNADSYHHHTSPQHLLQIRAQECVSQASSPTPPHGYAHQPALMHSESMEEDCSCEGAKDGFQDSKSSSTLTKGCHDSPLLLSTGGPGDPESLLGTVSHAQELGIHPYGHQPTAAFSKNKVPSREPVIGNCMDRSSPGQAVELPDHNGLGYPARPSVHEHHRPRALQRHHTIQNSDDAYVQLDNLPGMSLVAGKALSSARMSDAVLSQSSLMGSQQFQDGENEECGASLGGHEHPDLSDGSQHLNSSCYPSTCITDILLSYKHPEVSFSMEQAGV
Note: in the data inactive means no Kd found up to 30 µM.

Row | SMILES | Kd [1] | Kd [2] | Kd [3] | Kd [4] | Kd [5] | Kd [7] | Kd [8] | Kd [9] | Kd [10] | Kd [6]
1 | C[C@@H](Oc1cc(C(=O)Nc2ccc(C(=O)N3CCN(C)CC3)cc2)nnc1N)c1c(Cl)ccc(F)c1Cl | > 30 µM (inactive) | > 30 µM (inactive) | > 30 µM (inactive) | > 30 µM (inactive) | > 30 µM (inactive) | > 30 µM (inactive) | > 30 µM (inactive) | > 30 µM (inactive) | > 30 µM (inactive) | > 30 µM (inactive)
2 | C[C@H]1CNCCCN1S(=O)(=O)c1cccc2cncc(F)c12 | > 30 µM (inactive) | > 30 µM (inactive) | > 30 µM (inactive) | > 30 µM (inactive) | > 30 µM (inactive) | > 30 µM (inactive) | > 30 µM (inactive) | > 30 µM (inactive) | > 30 µM (inactive) | 
3 | CC(=O)c1cnc2ccc(-c3cc(Cl)c(O)c(Cl)c3)nc2c1N[C@H]1CC[C@H](CN(C)C)CC1 | > 30 µM (inactive) |  | > 30 µM (inactive) | > 30 µM (inactive) | 0.058 µM (active) | 0.118 µM (active) | > 30 µM (inactive) | 0.24 µM (active) | 0.356 µM (active) | 0.09 µM (active)
4 | Cc1nc(NC(=O)N2CCC[C@H]2C(N)=O)sc1-c1ccnc(C(C)(C)C(F)(F)F)c1 [ALPELISIB] | > 30 µM (inactive) | > 30 µM (inactive) | > 30 µM (inactive) | > 30 µM (inactive) | > 30 µM (inactive) | > 30 µM (inactive) | > 30 µM (inactive) | > 30 µM (inactive) | > 30 µM (inactive) | > 30 µM (inactive)
5 | O=C(Nc1c[nH]nc1-c1nc2cc(CN3CCOCC3)ccc2[nH]1)NC1CC1 [AT-9283] |  | > 30 µM (inactive) | > 30 µM (inactive) | > 30 µM (inactive) | 0.047 µM (active) | > 30 µM (inactive) | > 30 µM (inactive) | 0.03 µM (active) | 4.11 µM (active) | > 30 µM (inactive)
6 | CNC(=O)c1ccccc1Sc1ccc2c(/C=C/c3ccccn3)n[nH]c2c1 [AXITINIB] |  |  | > 30 µM (inactive) |  |  |  | > 30 µM (inactive) |  |  | 
7 | COc1cc([C@@H]2c3cc4c(cc3[C@H](O)[C@H]3COC(=O)[C@@H]23)OCO4)cc(OC)c1OC [AXL-1717] | > 30 µM (inactive) | > 30 µM (inactive) | > 30 µM (inactive) | > 30 µM (inactive) | > 30 µM (inactive) | > 30 µM (inactive) | > 30 µM (inactive) | > 30 µM (inactive) | > 30 µM (inactive) | > 30 µM (inactive)
8 | Cn1cc(C2=C(c3cn(C4CCN(Cc5ccccn5)CC4)c4ccccc34)C(=O)NC2=O)c2ccccc21 [ENZASTAURIN] |  |  | > 30 µM (inactive) |  |  |  | > 30 µM (inactive) |  |  | 
9 | Cc1cccc(-c2nn3c(c2-c2ccnc4ccc(C(N)=O)cc24)CCC3)n1 [GALUNISERTIB] | > 30 µM (inactive) | > 30 µM (inactive) | > 30 µM (inactive) | > 30 µM (inactive) | > 30 µM (inactive) | > 30 µM (inactive) | > 30 µM (inactive) | > 30 µM (inactive) | > 30 µM (inactive) | > 30 µM (inactive)
10 | O=C(Nc1cc(C(F)(F)F)cc(C(F)(F)F)c1)c1cc(Cl)ccc1O [IMD-0354] | > 30 µM (inactive) | > 30 µM (inactive) | > 30 µM (inactive) | > 30 µM (inactive) | > 30 µM (inactive) | > 30 µM (inactive) | > 30 µM (inactive) | > 30 µM (inactive) | > 30 µM (inactive) | > 30 µM (inactive)
11 | Cc1[nH]c(/C=C2\C(=O)Nc3ccccc32)c(C)c1CCC(=O)O [ORANTINIB] | > 30 µM (inactive) |  | > 30 µM (inactive) |  | 4.94 µM (active) |  | > 30 µM (inactive) | > 30 µM (inactive) | > 30 µM (inactive) | > 30 µM (inactive)
12 | CCCCCCCCCCCCCCCCCCOP(=O)([O-])OC1CC[N+](C)(C)CC1 [PERIFOSINE] | > 30 µM (inactive) | > 30 µM (inactive) | > 30 µM (inactive) | > 30 µM (inactive) | > 30 µM (inactive) | > 30 µM (inactive) | > 30 µM (inactive) | > 30 µM (inactive) | > 30 µM (inactive) | > 30 µM (inactive)
13 | N#CC[C@H](C1CCCC1)n1cc(-c2ncnc3[nH]ccc23)cn1 [RUXOLITINIB] |  |  | > 30 µM (inactive) |  |  |  | > 30 µM (inactive) |  |  | 
14 | Cn1ncc(Cl)c1-c1cc(C(=O)N[C@H](CN)Cc2ccc(F)c(F)c2)oc1Cl [UPROSERTIB] | > 30 µM (inactive) | > 30 µM (inactive) | > 30 µM (inactive) | > 30 µM (inactive) | > 30 µM (inactive) | > 30 µM (inactive) | > 30 µM (inactive) | > 30 µM (inactive) | > 30 µM (inactive) | > 30 µM (inactive)
15 | CN1C/C=C/CCOc2cccc(c2)-c2ccnc(n2)Nc2cccc(c2)C1 [ZOTIRACICLIB] | > 30 µM (inactive) | > 30 µM (inactive) | > 30 µM (inactive) | > 30 µM (inactive) | > 30 µM (inactive) | > 30 µM (inactive) | > 30 µM (inactive) | > 30 µM (inactive) | 1.3 µM | 1.07 µM (active)

Second part, led by results:

Row | Kd [1] | Kd [2] | Kd [3] | Kd [4] | Kd [5] | Kd [7] | Kd [8] | Kd [9] | Kd [10] | SMILES | Kd [6]
16 |  |  | > 30 µM (inactive) |  |  |  | > 30 µM (inactive) |  |  | C[C@@H](Oc1cc(-n2cnc3ccc(CN4CCN(C)CC4)cc32)sc1C(N)=O)c1ccccc1C(F)(F)F [GSK-461364] | 
17 | > 30 µM (inactive) | > 30 µM (inactive) | > 30 µM (inactive) | > 30 µM (inactive) | > 30 µM (inactive) | > 30 µM (inactive) | > 30 µM (inactive) | > 30 µM (inactive) | > 30 µM (inactive) | CN(C[C@@H]1COCCO1)S(=O)(=O)Nc1ccc2ccc3ncc(-c4cnn(C)c4)cc3c(=O)c2c1 [MK-2461] | > 30 µM (inactive)
18 |  |  | > 30 µM (inactive) |  |  |  | > 30 µM (inactive) |  |  | O=C(NOCCO)c1cc(CN2OCCCC2=O)c(F)c(F)c1Nc1ccc(I)cc1F [RO-4987655] | 
